Laboratory results from PMC7071059, “Targeting Receptor Tyrosine Kinase VEGFR-2 in Hepatocellular Cancer: Rational Design, Synthesis and Biological Evaluation of 1,2-Disubstituted Benzimidazoles” (Molecules, 2020).
Where two headings read alike, the source gives them in different places.

How the values were obtained:
HepG2 cell line [1] = assay: In vitro cytotoxic activity, Sulfo-Rhodamine-B (SRB) assay; type: cell-based, human; settings: read-out: IC50 (μM) on HepG2 Cell Line
VEGFR-2 = VEGFR-2 (Homo sapiens, UniProt P35968); assay: Biochemical kinase assay (Kinase-Glo Plus luminescence)
Chain of VEGFR-2 (P35968 20-1356): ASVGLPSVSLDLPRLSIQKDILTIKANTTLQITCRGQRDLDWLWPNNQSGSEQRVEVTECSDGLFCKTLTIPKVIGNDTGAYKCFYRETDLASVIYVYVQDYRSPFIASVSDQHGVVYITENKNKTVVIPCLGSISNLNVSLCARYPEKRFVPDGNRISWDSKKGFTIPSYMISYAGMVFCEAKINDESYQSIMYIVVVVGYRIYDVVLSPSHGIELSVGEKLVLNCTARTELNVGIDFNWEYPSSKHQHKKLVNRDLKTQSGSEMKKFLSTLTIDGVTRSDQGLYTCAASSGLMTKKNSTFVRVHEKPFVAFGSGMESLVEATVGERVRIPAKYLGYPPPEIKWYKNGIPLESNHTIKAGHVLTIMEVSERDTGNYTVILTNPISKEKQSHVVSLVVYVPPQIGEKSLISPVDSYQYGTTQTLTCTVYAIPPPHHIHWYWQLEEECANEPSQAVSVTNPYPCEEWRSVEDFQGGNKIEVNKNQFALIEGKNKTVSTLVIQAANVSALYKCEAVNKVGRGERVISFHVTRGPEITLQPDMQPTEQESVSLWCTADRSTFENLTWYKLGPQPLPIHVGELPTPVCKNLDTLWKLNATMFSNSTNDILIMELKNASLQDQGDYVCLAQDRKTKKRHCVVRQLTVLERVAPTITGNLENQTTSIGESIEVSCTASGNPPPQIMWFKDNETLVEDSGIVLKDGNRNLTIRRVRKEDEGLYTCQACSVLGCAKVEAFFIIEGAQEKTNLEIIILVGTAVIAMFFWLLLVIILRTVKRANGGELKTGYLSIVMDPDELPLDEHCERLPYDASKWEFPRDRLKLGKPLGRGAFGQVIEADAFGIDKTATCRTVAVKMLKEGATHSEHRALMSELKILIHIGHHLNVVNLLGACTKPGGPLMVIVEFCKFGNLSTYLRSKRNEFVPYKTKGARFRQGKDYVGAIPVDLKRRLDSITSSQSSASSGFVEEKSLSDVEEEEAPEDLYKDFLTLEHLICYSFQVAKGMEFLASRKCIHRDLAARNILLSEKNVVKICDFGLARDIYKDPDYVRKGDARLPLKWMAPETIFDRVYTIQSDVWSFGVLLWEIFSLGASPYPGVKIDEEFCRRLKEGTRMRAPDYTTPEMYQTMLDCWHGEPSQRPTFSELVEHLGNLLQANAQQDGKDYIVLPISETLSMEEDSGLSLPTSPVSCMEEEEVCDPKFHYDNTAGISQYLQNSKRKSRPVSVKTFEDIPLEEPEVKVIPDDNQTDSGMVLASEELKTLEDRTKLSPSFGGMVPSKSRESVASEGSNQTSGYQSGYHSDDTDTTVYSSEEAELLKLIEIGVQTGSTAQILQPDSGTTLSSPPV

HepG2 cell line [2] = tested on: HepG2 cell line; parameters: method as in PMID 28505536; settings: earlier 2-furylbenzimidazole, comparison value; cited from earlier work
[3] = Homo sapiens, HepG2, 48 h, SRB assay, 48 h, mean of three independent experiments
[4] = SRB assay, 48 h, mean of three independent experiments

Row | Structure (SMILES) | melting point [°C] | IC50 (HepG2 cell line [1]; [3]) [µM] | further results
1 | CC(C)c1nc2ccccc2n1CC(=O)c1ccc(C#N)cc1 [Compound 6, 4-(2-(2-Isopropyl-1H-benzo[d]imidazol-1-yl)acetyl)benzonitrile] | 209 to 211 | 13.5 | –
2 | CCOC(=O)Cn1c(-c2ccc(C)o2)nc2ccccc21 [Compound 8d] | – | > 150 | –
3 | CC(C)c1nc2ccccc2[nH]1 [Compound 4a, 2-Isopropyl-1H-benzo[d]imidazole] | 233 to 235 | > 200 | –
4 | COC(=O)Cn1c(-c2ccc(C)o2)nc2ccccc21 [Compound 8b, Methyl 2-(2-(5-methylfuran-2-yl)-1H-benzo[d]imidazol-1-yl)acetate] | – | > 150 | –
5 | CC(C)c1nc2ccccc2n1CC(=O)O [Compound 9a, 2-(2-Isopropyl-1H-benzo[d]imidazol-1-yl)acetic acid] | 238 to 240 | 32.5 | –
6 | COC(=O)Cn1c(C(C)C)nc2ccccc21 [Compound 8a, Methyl 2-(2-isopropyl-1H-benzo[d]imidazol-1-yl)acetate] | 93 to 95 | > 200 | –
7 | CCOC(=O)Cn1c(C(C)C)nc2ccccc21 [Compound 8c, Ethyl 2-(2-isopropyl-1H-benzo[d]imidazol-1-yl)acetate] | 103 to 105 | > 200 | –
8 | Cc1ccc(-c2nc3ccccc3n2CC(=O)N/N=C/c2ccccc2Cl)o1 [IX] | – | – | IC50 (HepG2 cell line [2]): 22.6 µM
9 | Cc1ccc(/C=N/NC(=O)Cn2c(C(C)C)nc3ccccc32)o1 [Compound 13h, (E)-2-(2-Isopropyl-1H-benzo[d]imidazol-1-yl)-N′-((5-methylfuran-2-yl)methylene)acetohydrazide] | – | 59.9 | –
10 | CNC(=O)c1cc(Oc2ccc(NC(=O)Nc3ccc(Cl)c(C(F)(F)F)c3)cc2)ccn1 [Sorafenib (I), sorafenib, reference compound] | – | – | IC50 (HepG2 cell line [1]; Homo sapiens, HepG2, 48 h): 11 µM
11 | Cc1ccc(-c2nc3ccccc3[nH]2)o1 [Compound 4b, 2-(5-Methylfuran-2-yl)-1H-benzo[d]imidazole] | – | 103 | –
12 | Cc1ccc(S(=O)(=O)NC(=O)NNC(=O)Cn2c(C(C)C)nc3ccccc32)cc1 [Compound 24a, 2-(2-(2-Isopropyl-1H-benzo[d]imidazol-1-yl)acetyl)-N-tosylhydrazine-1-carboxamide] | – | 80.7 | –

More lines, main results first:

Row | melting point [°C] | Structure (SMILES) | IC50 (HepG2 cell line [1]; [3]) [µM] | further results
13 | 231 to 233 | C/C(=N\NC(=O)Cn1c(C(C)C)nc2ccccc21)c1ccc(Br)c([N+](=O)[O-])c1 [Compound 14d, (E)-N′-(1-(4-Bromo-3-nitrophenyl)ethylidene)-2-(2-isopropyl-1H-benzo[d]imidazol-1-yl)acetohydrazide] | 62 | –
14 | 150 to 152 | COC(=O)COc1ccc(/C=N/NC(=O)Cn2c(-c3ccc(C)o3)nc3ccccc32)cc1OC [Compound 19b, Methyl-(E)-2-(2-methoxy-4-((2-(2-(2-(5-methylfuran-2-yl)-1H-benzo[d]imidazol-1-yl)acetyl)hydrazono)methyl)phenoxy)acetate] | 71.7 | –
15 | 203 to 205 | COc1cc(C=O)ccc1OCCOc1ccc(/C=N/NC(=O)Cn2c(-c3ccc(C)o3)nc3ccccc32)cc1OC [Compound 22b, (E)-N′-(4-(2-(4-Formyl-2-methoxyphenoxy)ethoxy)-3-methoxybenzylidene)-2-(2-(5-methylfuran-2-yl)-1H-benzo[d]imidazol-1-yl)acetohydrazide] | > 100 | IC50 (HepG2 cell line [1]; [4]): 107 µM
16 | 202 to 204 | COc1ccc(OC)c(/C=N/NC(=O)Cn2c(C(C)C)nc3ccccc32)c1 [Compound 13f] | 11.9 to 15.6 | IC50 (HepG2 cell line [1]; [4]): 16.7 µM; IC50 (VEGFR-2): 0.4 ± 0.01 µM
17 | 218 to 220 | COc1cc(C=O)ccc1OCCOc1ccc(/C=N/NC(=O)Cn2c(C(C)C)nc3ccccc32)cc1OC [Compound 22a, (E)-N′-(4-(2-(4-Formyl-2-methoxyphenoxy)ethoxy)-3-methoxybenzylidene)-2-(2-isopropyl-1H-benzo[d]imidazol-1-yl)acetohydrazide] | > 100 | IC50 (HepG2 cell line [1]; [4]): 123 µM
18 | 238 to 240 | C/C(=N\NC(=O)Cn1c(C(C)C)nc2ccccc21)c1ccccc1C [Compound 14b, (E)-2-(2-Isopropyl-1H-benzo[d]imidazol-1-yl)-N′-(1-(o-tolyl)ethylidene)acetohydrazide] | 26.2 | –
19 | 136 to 138 | CCOC(=O)COc1ccc(/C=N/NC(=O)Cn2c(-c3ccc(C)o3)nc3ccccc32)cc1OC [Compound 19d, Ethyl-(E)-2-(2-methoxy-4-((2-(2-(2-(5-methylfuran-2-yl)-1H-benzo[d]imidazol-1-yl)acetyl)hydrazono)methyl)phenoxy)acetate] | 114 | –
20 | 165 to 167 | COc1cc(/C=N/NC(=O)Cn2c(C(C)C)nc3ccccc32)ccc1O [Compound 13g, (E)-N′-(4-Hydroxy-3-methoxybenzylidene)-2-(2-isopropyl-1H-benzo[d]imidazol-1-yl)acetohydrazide] | 13.9 | –
21 | 215 to 217 | C/C(=N\NC(=O)Cn1c(C(C)C)nc2ccccc21)c1ccc(Br)cc1 [Compound 14c, (E)-N′-(1-(4-Bromophenyl)ethylidene)-2-(2-isopropyl-1H-benzo[d]imidazol-1-yl)acetohydrazide] | 112 | –
22 | 190 to 192 | COc1ccc(/C=N/NC(=O)Cn2c(C(C)C)nc3ccccc32)cc1 [Compound 13d, (E)-2-(2-Isopropyl-1H-benzo[d]imidazol-1-yl)-N′-(4-methoxybenzylidene)acetohydrazide] | 11.9 | IC50 (VEGFR-2): 0.09 ± 0.002 µM
23 | 93 to 95 | CCOC(=O)COc1ccc(/C=N/NC(=O)Cn2c(C(C)C)nc3ccccc32)cc1OC [Compound 19c, Ethyl-(E)-2-(4-((2-(2-(2-isopropyl-1H-benzo[d]imidazol-1-yl)acetyl)hydrazono)methyl)-2-methoxyphenoxy)acetate] | 133 | –
24 | 225 to 227 | CC(C)c1nc2ccccc2n1CC(=O)N/N=C/c1ccc(N(C)C)cc1 [Compound 13e, (E)-N′-(4-(Dimethylamino)benzylidene)-2-(2-isopropyl-1H-benzo[d]imidazol-1-yl)acetohydrazide] | 87 | –
25 | 189 to 191 | COc1ccc(NC(=S)NNC(=O)Cn2c(-c3ccc(C)o3)nc3ccccc32)cc1 [Compound 24c, N-(4-Methoxyphenyl)-2-(2-(2-(5-methylfuran-2-yl)-1H-benzo[d]imidazol-1-yl)acetyl)hydrazine-1-carbothioamide] | 8.73 | –
26 | 232 to 234 | COc1ccc(NC(=S)NNC(=O)Cn2c(C(C)C)nc3ccccc32)cc1 [Compound 24b, 2-(2-(2-Isopropyl-1H-benzo[d]imidazol-1-yl)acetyl)-N-(4-methoxyphenyl)hydrazine-1-carbothioamide] | 15.9 | –
27 | 249 to 251 | CC(C)c1nc2ccccc2n1CC(=O)N/N=C/c1cccc(O)c1 [Compound 13b, (E)-N′-(3-Hydroxybenzylidene)-2-(2-isopropyl-1H-benzo[d]imidazol-1-yl)acetohydrazide] | 137 | –
28 | 175 to 177 | COC(=O)COc1ccc(/C=N/NC(=O)Cn2c(C(C)C)nc3ccccc32)cc1OC [Compound 19a, Methyl-(E)-2-(4-((2-(2-(2-isopropyl-1H-benzo[d]imidazol-1-yl)acetyl)hydrazono)methyl)-2-methoxyphenoxy)acetate] | 109 | –
29 | 296 to 298 | CC(C)c1nc2ccccc2n1CC(=O)N/N=C/c1ccc(O)cc1 [Compound 13c, (E)-N′-(4-Hydroxybenzylidene)-2-(2-isopropyl-1H-benzo[d]imidazol-1-yl)acetohydrazide] | 140 | –
30 | 211 to 213 | CC(C)c1nc2ccccc2n1CC(=O)N/N=C/c1ccccc1Cl [Compound 13a, (E)-N′-(2-Chlorobenzylidene)-2-(2-isopropyl-1H-benzo[d]imidazol-1-yl)acetohydrazide] | 158 | –
31 | 243 to 245 | CC(C)c1nc2ccccc2n1CC(=O)NN [Compound 10a, 2-(2-Isopropyl-1H-benzo[d]imidazol-1-yl)acetohydrazide] | 301 | –
